Data set [1] is described as follows: Cytotoxicity colorimetric assay, NIH/3T3. It counts as cell-based, mouse. The note with it: mouse, NIH/3T3 cells, one hour in serum-free media. As for the experimental part: (§1) This assay measures the bioreduction of a novel tetrazolium compound to a soluble formazan product by viable cells. HepG2 cells were seeded in 96 well plates at 3×10^4 cells/well in MEM medium with 10% fetal bovine serum (FBS) 24 hours prior to use. NIH/3T3 cells were seeded in 96 well plates at 2×10^4 cells/well in DMEM medium with 10% bovine calf serum (BCS) 24 hours prior to use. Cell monolayers were rinsed in serum-free media and incubated for one hour with test agent in serum-free media. After incubation, the media was replaced with serum supplemented media and live cells were measured using the Cell Titer 96 Aqueous […] Assay kit (Promega, Madison, Wis.). EC50 values were determined using a four parameter logistic equation: Y=Bottom+(Top-Bottom)/(1+10̂((LogEC50-X)*HillSlope)).

The next data set relates to tinzaparin. The data set is described as follows: FXa amidolytic assay (Example 10), tinzaparin. The following applies: read-out: Tinzap FXa EC50; tinzaparin 0.1 ug/ml; human antithrombin, bovine Factor Xa.
Another data set has as its system fondaparinux. Kind of data set: FXa amidolytic assay (Example 10), fondaparinux. The note with it: read-out: Fondap FXa EC50; fondaparinux 0.02 μg/mL; human antithrombin, bovine Factor Xa.
The test system of data set [2] is isolated human erythrocytes. The data set is described as follows: cells. It counts as cell-based. The following applies: Homo sapiens, Erythrocyte, 1 h, human RBC, 1 hour at 37° C.; read-out: Hemolysis EC50. Summed up: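 Pooled human red cells, washed and diluted from a 0.22% stock suspension in TBS pH 7.4, were shaken with two-fold dilutions (1000 to 0.48 µg/ml) for 1 h at 37 °C. Released hemoglobin in the supernatant was read at OD405. EC50 came from a four-parameter logistic fit, with melittin as positive control.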

A short description of data set [3]: Cytotoxicity colorimetric assay, HepG2. In kind it is cell-based, human. The following applies: human, HepG2 cells, one hour in serum-free media. As for the experimental part: as §1
A further data set concerns Unfractionated heparin. Kind of data set: aPTT clotting assay, UFH 0.4 U/mL in plasma (Example 10). It counts as biochemical. The following applies: unfractionated heparin 0.4 U/mL in plasma; aPTT clotting. As for the experimental part: aPTT clotting Assay: Unfractionated heparin was mixed with plasma at a final concentration of 0.4 U/mL (or concentration which increases aPTT time to between 120 and 300 seconds). […] The ACL Elite Hemostasis analyzer (Beckman Coulter™) was used to add aPTT reagent (HemosIL SynthASil) to supplemented plasma. Clotting was initiated by addition of CaCl2 and time to clot was recorded.

A further data set relates to enoxaparin. Kind of data set: FXa amidolytic assay (Example 10), enoxaparin. The note with it: read-out: Enox FXa EC50; enoxaparin 0.1 ug/ml; human antithrombin, bovine Factor Xa.
A further data set has as its system UFH. The data set is described as follows: FXa amidolytic assay (Example 10), UFH. The following applies: read-out: Heparin FXa uM EC50; UFH 0.03 units/mL; human antithrombin, bovine Factor Xa.

Converted amounts (≈) assume the structure as drawn. “And” between values parts separate entries of the source, which are not always exact repeats. Equal values may be shown once. Starred links: 1 amine or outer side, 2 acyl side, 3 side chain; linkers in the order of their positions; H or OH if unused. Non-standard residues stand in square brackets, D forms with d. Residues, ends and D or L forms follow the SMILES beside them. *: point of attachment. NH(3-CONH2-4-OMe-phenyl) = COc1ccc(N*)cc1C(N)=O; 3Abz(6-OMe) = COc1ccc(N[*:1])cc1C(=O)[*:2]

Protocol for enoxaparin: (§2) Two μl of test agent are added (range between 0.01 and 23 ug/ml) and incubated for 5 minutes at 23° C. Bovine Factor Xa was added to a final concentration of 0.636 nkat/mL and incubated for a further 10 minutes at 23° C.
Protocol for fondaparinux: as §2
Protocol for tinzaparin: as §2

As for `COc1cc(OC)c(C(=O)N[C@H]2CC[C@H](NC(=O)c3cc(C(=O)N[C@H]4CC[C@H](NC(=O)c5cc(C(=O)NCCCN)c(OC)cc5OC)CC4)c(OC)cc3OC)CC2)cc1C(=O)NCCCN` [Compound 406], the EC50 at 1 h in data set [1] was determined as 215 µg/mL (≈ 227 µM); in data set [3], 209 µg/mL (≈ 220 µM). In addition, the EC50 in the data set with tinzaparin was 436 nM; in the data set on fondaparinux, 113 nM; in data set [2] it was 12.1 µg/mL (≈ 12.8 µM); in the data set on Unfractionated heparin it was 2460 nM; in the data set on enoxaparin it was 299 nM.
Turning to `COc1cc(OC)c(C(=O)N[C@H]2CC[C@H](NC(=O)c3cc(C(=O)N[C@H]4CC[C@H](NC(=O)c5cc(C(=O)NCCN)c(OC)cc5OC)CC4)c(OCC(N)=O)cc3OC)CC2)cc1C(=O)NCCN` [Compound 390], the half-maximal effective concentration (EC50) at 1 h in data set [1] is 986 µg/mL (≈ 1020 µM); in data set [3] it was 892 µg/mL (≈ 927 µM). The 50% effective concentration (EC50) with tinzaparin was 708 nM; in the data set on fondaparinux it was 1280 nM; in data set [2] it was over 1000 µg/mL; with Unfractionated heparin, 2080 nM; in the data set on enoxaparin, 707 nM.
In the case of `COc1ccc(NC(=O)[C@H](CCCCN)NC(=O)c2cc(NC(=O)[C@H](CCCCN)NC(=O)c3cc(NC(=O)[C@H](CCCCN)NC(=O)c4cc(NC(=O)[C@@H](N)CCCCN)ccc4OC)ccc3OC)ccc2OC)cc1C(=O)O` [Compound 250], the EC50 at 1 h in data set [1] and in data set [3] was over 1000 µg/mL in each case. For the same molecule, the EC50 is 1290 nM with tinzaparin, over 10000 nM with fondaparinux, 2730 nM in the data set on Unfractionated heparin and 3280 nM in the data set on enoxaparin.
As to `COc1cc(OC)c(C(=O)N[C@H]2CC[C@@H](NC(=O)c3cc(C(=O)N[C@H]4CC[C@@H](NC(=O)c5cc(C(=O)NCCCN)c(OC)cc5OC)CC4)c(OC)cc3OC)CC2)cc1C(=O)NCCCN` [Compound 404], the EC50 at 1 h in data set [1] is 1100 µg/mL (≈ 1160 µM); in data set [3] it was over 1000 µg/mL. Further, the EC50 came to 445 nM in the data set with tinzaparin, 325 nM with fondaparinux, 2570 nM in the data set with Unfractionated heparin and 350 nM in the data set with enoxaparin.
On to `COc1ccc(NC(=O)[C@H](CCCCN)NC(=O)c2cc(NC(=O)[C@H](CCCCN)NC(=O)c3cc(NC(=O)[C@H](CCCCN)NC(=O)c4cc(NC(=O)[C@H](CCCCN)NC(=O)[C@@H](N)Cc5c[nH]c6ccccc56)ccc4OC)ccc3OC)ccc2OC)cc1C(N)=O` [Compound 351] (H-WK[3Abz(6-OMe)]K[3Abz(6-OMe)]K[3Abz(6-OMe)]K-{NH(3-CONH2-4-OMe-phenyl)}), for which the concentration giving a half-maximal response (EC50) was 114 nM in the data set on tinzaparin; 1110 nM in the data set on fondaparinux; over 1000 µg/mL in data set [2]; 1930 nM with Unfractionated heparin; 0.194 µM in the data set on UFH; 214 nM with enoxaparin.
For `COc1ccc(NC(=O)[C@@H](CCCNC(N)=O)NC(=O)c2cc(NC(=O)[C@@H](CCCNC(N)=O)NC(=O)c3cc(NC(=O)[C@@H](CCCNC(=N)N)NC(=O)c4cc(NC(C)=O)ccc4OC)ccc3OC)ccc2OCC(=O)O)cc1C(=O)N[C@H](Cc1c[nH]c2ccccc12)C(N)=O` [Compound 333], the EC50 in the data set on tinzaparin was over 5000 nM; with fondaparinux, over 5000 nM; in data set [2] it was 1000 µg/mL (≈ 737 µM); with Unfractionated heparin, over 10000 nM; in the data set on UFH, over 5 µM; in the data set with enoxaparin, over 5000 nM.
Regarding `COc1ccc(NC(=O)[C@@H](CCCNC(=N)N)NC(=O)c2cc(NC(=O)[C@@H](CCCNC(=N)N)NC(=O)c3cc(NC(=O)[C@@H](CCCNC(=N)N)NC(=O)c4cc(NC(C)=O)ccc4OC)ccc3OC)ccc2OC)cc1C(N)=O` [Compound 229], the EC50 was 167 nM and 164 nM in the data set on tinzaparin; 587 nM and 322 nM with fondaparinux; about 500 µg/mL (≈ 445 µM) in data set [2]; 1850 nM and 2270 nM with Unfractionated heparin; 215 nM and 207 nM with enoxaparin. Further, the half-maximal effective concentration (EC50) at 1 h in data set [3] is over 1000 µg/mL.
For `COc1ccc(NC(=O)[C@@H](CCCNC(=N)N)NC(=O)c2cc(NC(=O)[C@@H](CCCNC(=N)N)NC(=O)c3cc(NC(=O)[C@@H](CCCNC(=N)N)NC(=O)c4cc(NC(C)=O)ccc4OC)ccc3OC)ccc2OCC(=O)O)cc1C(=O)N[C@H](Cc1c[nH]c2ccccc12)C(=O)O` [Compound 306], the EC50 in the data set with tinzaparin is 199 nM and 367 nM; in data set [2] it was about 1000 µg/mL (≈ 738 µM); in the data set with Unfractionated heparin, over 10000 nM; with UFH, 0.236 µM; in the data set with enoxaparin, 198 nM and 338 nM. Besides, the EC50 at 1 h in data set [3] was about 1000 µg/mL (≈ 738 µM).
